According to PMC7309560, “Discovery of Small Molecule Inhibitors Targeting the Sonic Hedgehog” (Frontiers in Chemistry, 2020):
Read-outs that look alike come from different tables or passages of the source.

What was measured:
ShhN-EGFP = target: T1, ShhN-EGFP (Homo sapiens, UniProt Q15465); test: Microscale thermophoresis (MST) binding
T1 construct: PET-28(a)-human ShhN (Shh 24-197) plasmid; His (N); made in house; host or cells: Escherichia coli Rosetta (DE3)
Protocol: Chuanmao Zhang. EGFP gene was subcloned into pET-28(a)-human ShhN vector to build ShhN-EGFP plasmids. All mutations were introduced by PCR and confirmed by sequencing with GENEWIZ (China).
Measurements were performed using a Monolith NT. […] MST-optimized buffer (50 mM Tris·HCl, pH 7.4, 150 mM NaCl, 10 mM MgCl2, 0.1% Tween-20, 0.1% Pluronic-F127, 5% DMSO) was applied. Measurements were carried out using blue LED color with 20% LED power and 40% MST power. The concentration of ShhN-EGFP was adjusted according to the fluorescence. Mean values and standard deviations were calculated from experiments performed at least in triplicate. Nanotemper analysis software V1.5.41 was applied to analyze data.
We used microscale thermophoresis (MST) to quantitatively measure binding constants between the compounds and ShhN (Table S5 and Figure S1). A ShhN-EGFP fusion protein was constructed, expressed, and purified from bacterial cells. In MST binding assays, ShhN-EGFP was kept at a constant concentration according to the fluorescence signal. Different concentrations of the molecules were tested and dissociation constants (Kd) were derived.

[1] = system: Hh signaling pathway (8 × Gli-binding site luciferase reporter, Shh-LIGHT2 cells); test: Dual-luciferase reporter assay in Shh-LIGHT2 cells; assay type: cell-based; settings: for IC50: Shh Light2, 36 h, ShhN-conditioned medium, 36 h, mean ± SD for three independent experiments; for inhibition at 5 µM: read-out: Inhibition rate for cell assay at 5 μM
Protocol: A dual-luciferase reporter assay was performed as previously described (Zhan et al., [2014]; Kong et al., [2015]). Shh-LIGHT2 cells, an Hh activity reporter cell line derived from NIH-3T3 cells by stably expressing 8 × Gli-binding site luciferase reporter (8 × GBS-luciferase) plasmid provided by Sasaki et al. ([1999]) and pRL-Renilla luciferase plasmid, were seeded into 96-well plates. After 24 h, ShhN-conditioned medium (ShhN CM) was added, and cells were exposed to molecules. The luciferase activities of cells were measured 36 h later with a Dual-Luciferase Reporter Assay System (E1960, Promega), according to the manufacturer's instructions, in a luminometer (Molecular Devices, Sunnyvale, CA). The firefly luciferase values were normalized to the Renilla luciferase activities, and IC50 values were fitted with the Hill equation with OriginPro 9.
We further tested the 45 Shh-binding compounds to assess their effects on the Hh signaling pathway. […] Compounds with similar framework were merged, resulting in seven hits.
All 22 derivatives of 7 were tested at 5 μM with the dual-luciferase reporter cell assay (Table S6).

ShhN = target: T2, ShhN (Homo sapiens, UniProt Q15465); test: NanoDSF thermal stability; assay type: binding; settings: ShhN 0.2 mg/mL
T2 construct: PET-28(a)-human ShhN (Shh 24-197) plasmid; His (N); made in house; host or cells: Escherichia coli Rosetta (DE3)
Protocol: Measurements were performed using a Prometheus NT.48 instrument (NanoTemper Inc., Germany). ShhN was diluted to 0.2 mg/mL in buffer contained 10 mM HEPES, pH 7.4, 150 mM NaCl, and 5% DMSO. Measurements were carried out using 70% power with standard Prometheus NT.48 capillaries. The heating was 1.0°C/min from 20 to 95°C.
To gain further insight into the effects of inhibitors against ShhN, a NanoDSF experiment was conducted.

[2] = system: Gli1 mRNA expression in Ptch+/−p53−/− medulloblastoma cells; test: Real-time PCR of Gli1 mRNA in Ptch+/-p53-/- medulloblastoma cells; assay type: cell-based, mice; settings: RT-qPCR, 36 h exposure, normalized to GUSB
Protocol: Ptch^+/−p53^−/− medulloblastoma cells were cultivated from spontaneous medulloblastoma developed by ptch^+/−; p53^−/− mice. All procedures were preapproved by the Animal Care and Use Committee of Fudan University and performed according to institutional policies. Briefly, medulloblastoma tissues were mechanically minced and digested by collagenase. The cells were routinely cultured using Neurobasal A medium (Invitrogen) plus B-27 supplement (Invitrogen), EGF 20 ng/mL (Invitrogen), bFGF 20 ng/mL (Invitrogen), non-essential amino acids, N-acetylcysteine 60 μg/mL. GDC-0449 was purchased from Biovision (Milpitas, CA). […]
Total RNA was extracted from cells using an RNAiso Plus Kit (TaKaRa, Dalian, China) according to the manufacturer's instructions and processed directly to cDNA by reverse transcription with a SuperScript III Kit (TaKaRa, Dalian, China). Semi-quantitative PCR amplification was conducted using Stratagene mx3005p (Agilent). All quantitative PCR amplifications were performed in triplicate with a SYBR Green Kit (TaKaRa, Dalian, China) in an iCycleriQ system (Bio-Rad, Hercules, CA). […]
Levels of the Shh-induced transcription factor Gli1 are higher in Ptch^+/−p53^−/− medulloblastoma from mice than in control tissues as a result of increased Hh signaling activity (Wetmore et al., [2001]). […] We measured the expression of Gli1 mRNA using RT-qPCR (Figure 2). […]

Shh = Shh inhibitory activity in cellular assays, ref Stanton et al., 2009 (Table 1 prints ref. 14), cited from earlier work
[3] = MST, ShhN-EGFP, mean±SD for three independent experiments, read-out: Kd

T1 sequence (Q15465 24-197): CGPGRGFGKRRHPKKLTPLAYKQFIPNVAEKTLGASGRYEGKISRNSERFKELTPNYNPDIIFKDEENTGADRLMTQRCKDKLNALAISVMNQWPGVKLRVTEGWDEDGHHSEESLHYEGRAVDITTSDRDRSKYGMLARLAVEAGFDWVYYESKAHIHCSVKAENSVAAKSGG
T2 sequence (Q15465 24-197): as above

SMILES	IC50 [1]	inhibition at 5 µM [1]	also measured
c1ccc(COC(CNC2CCCCC2)CNC2CCCCC2)cc1 [Compound 3]	2200 ± 200 nM	–	Kd (ShhN-EGFP; [3]): 3100 ± 300 nM
CCN(CC)S(=O)(=O)c1ccc(C(=O)Nc2sc3c(c2C(N)=O)CCN(C)C3)cc1 [Compound 4]	2700 ± 200 nM	–	MST binding signal / dose-response (in words) (ShhN-EGFP; ShhN-EGFP): did not reach saturation
Nc1nc(NCCCN2CCOCC2)nc(NCc2ccco2)c1[N+](=O)[O-] [Compound 7]	2200 ± 300 nM	–	Kd (ShhN-EGFP; [3]): 6200 ± 600 nM
OC(CNCc1ccc2c(c1)OCO2)COc1ccc(-c2csnn2)cc1 (stereo not drawn) [Compound 2]	1700 ± 100 nM	–	Kd (ShhN-EGFP): 8400 ± 900 nM
Nc1nc(NCC2CCCO2)nc(NCc2ccco2)c1[N+](=O)[O-] (stereo not drawn) [Compound 7_2d2]	3200 ± 700 nM	94 ± 4%	–
Cc1cc(C)c(CSC2=NCCN2)c(C)c1CSC1=NCCN1 [Compound 1]	2300 ± 200 nM	–	Kd (ShhN-EGFP; [3]): 7000 ± 800 nM
OCCCNCC(O)Cn1c2ccc(Br)cc2c2cc(Br)ccc21 (stereo not drawn) [Compound 5]	2000 ± 300 nM	–	Kd (ShhN-EGFP): 4500 ± 600 nM
CCOC(=O)c1c(C)n(-c2ccc(C)cc2)c2ccc(OCC(O)CNCCCO)cc12 (stereo not drawn) [Compound 6]	1400 ± 400 nM	–	Kd (ShhN-EGFP; [3]): 5800 ± 500 nM
CS(=O)(=O)c1ccc(C(=O)Nc2ccc(Cl)c(-c3ccccn3)c2)c(Cl)c1 [GDC-0449]	–	–	Relative mRNA expression of Gli1 (effect in words) [2]: positive control for inhibition of the expression of Gli1 mRNA

Continued, in another order:

IC50 [1]	SMILES	inhibition at 5 µM [1]	also measured
2100 ± 200 nM	Nc1nc(Nc2ccc(Cl)cc2)nc(NCc2ccco2)c1[N+](=O)[O-] [Compound 7_2d7]	102 ± 3%	–
5900 ± 1700 nM	Nc1nc(Nc2ccccc2F)nc(NCc2ccco2)c1[N+](=O)[O-] [Compound 7_2d9]	94 ± 3%	–
1600 ± 600 nM	c1ccc(Nc2nc(NC3CCCCCC3)nc3c2cnn3-c2ccccc2)cc1 [Compound 7_3d2]	93 ± 1%	–
1200 ± 200 nM	N#Cc1c(N)nc(NCCCN2CCOCC2)nc1-c1ccc(Cl)cc1 [Compound 7_3d11]	–	–
2400 ± 400 nM	Nc1nc(Nc2cccc(F)c2)nc(NCc2ccco2)c1[N+](=O)[O-] [Compound 7_2d8]	101 ± 8%	–
2000 ± 800 nM	CCOc1ccc(Nc2nc(N)c([N+](=O)[O-])c(NCc3ccco3)n2)cc1 [Compound 7_2d6]	97 ± 7%	–
2600 ± 300 nM	Nc1nc(NCCN2CCOCC2)nc(NCc2ccco2)c1[N+](=O)[O-] [Compound 7_2d3]	68 ± 12%	–
600 ± 100 nM	CCN1CCN(c2nc(Nc3cccc(Cl)c3)c3cnn(-c4ccccc4)c3n2)CC1 [Compound 7_3d4]	105 ± 5%	–
~400 nM	CCN(CC)CCNc1nc(Nc2cccc(Cl)c2)c2cnn(-c3ccccc3)c2n1 [Compound 7_3d3]	107 ± 1%	Thermal stability of ShhN (in words) (ShhN): improved the thermal stability of ShhN better than 7
4400 ± 900 nM	O=C(C[C@@H]1C/C=C/CCC(=O)O[C@H](c2ccccc2)CNC1=O)NCc1ccc(Cl)cc1 [Robotnikinin]	–	Relative mRNA expression of Gli1 (effect in words) [2]: did not inhibit Gli1 mRNA expression; IC50 (Shh): 15000 nM; IC50 (Shh; listed as robotnikinin): ~15000 nM
